Laboratory results taken from publication PMC3118939 (Chemical research in toxicology, 2011).
Like-named read-outs stand apart in the source and are kept apart here.

Tests used:
[1] = test system: hypoxanthine phosphoribosyl transferase (hprt) gene of Chinese hamster ovary cells (CHO); type: cell-based; settings: estimated from ref 53, 69-71
rodents = settings: cited from earlier work
CDF1 mice = settings: cited from earlier work
[2] = test system: colon of C57BL/6 mice (Big Blue mouse); settings: cited from earlier work
colon of C57BL/6 mice = settings: cited from earlier work
rat = rat model; cited from earlier work
human hepatocytes [3] = test: 4-ABP and HAA biotransformation in human hepatocytes; type: in vitro ADME; settings: PhIP 10 μM in human hepatocytes
human hepatocytes [4] = settings: cited from earlier work; for dose metabolized in human hepatocyte preparations: 10 μM dose; for dose that underwent metabolism: human hepatocytes, 10 μM, after 24 h incubation, previous studies
P450 1A2 = settings: human versus rat P450 1A2; cited from earlier work
rat hepatocytes = settings: cited from earlier work; for extent of metabolism in rat hepatocytes: even after 24 h; for N-oxidation products as share of the dose: rat hepatocytes
human hepatocytes [5] = test: 4-ABP- and HAA-DNA adduct formation in freshly cultured human hepatocytes; settings: carcinogen 10 μM, 24 h incubation

Nc1ccc(-c2ccccc2)cc1 [4-ABP, 4-aminobiphenyl]
hprt mutants induced by one dG-C8 adduct per 10^7 bases in the CHO genome ([1]; dose concentration 2 μM): ~ 0.7 hprt mutants per one million c | cancer induction (rodents): induces cancer of the urinary bladder, liver, and mammary gland

Nc1ccc2c(n1)[nH]c1ccccc12 [AαC, 2-amino-9H-pyrido[2,3-b]indole]
hprt mutants induced by one dG-C8 adduct per 10^7 bases in the CHO genome ([1]; dose concentration 1.5 μM): ~2.5 hprt mutants per one million c | tumor induction (CDF1 mice): causes liver and blood vessel tumors | lacI transgene mutagenicity [2]: potent lacI transgene mutagen | aberrant crypt foci (colon of C57BL/6 mice): induces aberrant crypt foci | hepatocarcinogenicity (rat): not a hepatocarcinogen

Cn1c(=NO)n([C@@H]2O[C@H](C(=O)O)[C@@H](O)[C@H](O)[C@H]2O)c2ncc(-c3ccccc3)cc21 [HONH-N3-PhIP]
level of metabolite formed, lower than HON-PhIP-N^2-Gl (human hepatocytes [3]): ~ 10 fold

Cc1cnc2ccc3c(nc(N)n3C)c2n1 [MeIQx, 2-amino-3,8-dimethylimidazo[4,5-f]quinoxaline]
hprt mutants induced by one dG-C8 adduct per 10^7 bases in the CHO genome ([1]; dose concentration 1.5 μM): about 1.5 hprt mutants per one million c | dose metabolized in human hepatocyte preparations (human hepatocytes [4]): > 75% | dose that underwent metabolism (human hepatocytes [4]): up to 97% | catalytic efficiency of N-oxidation, human P450 1A2 superior to rat P450 1A2 (P450 1A2): 11 fold | extent of metabolism in rat hepatocytes (rat hepatocytes): poorly metabolized | N-oxidation products as share of the dose (rat hepatocytes): less than 2%

Cn1c(N)nc2ncc(-c3ccccc3)cc21 [PhIP, 2-amino-1-methyl-6-phenylimidazo[4,5-b]pyridine]
hprt mutants induced by one dG-C8 adduct per 10^7 bases in the CHO genome ([1]; dose concentration 1.2 μM): ~2.8 hprt mutants per one million c | dose metabolized in human hepatocyte preparations (human hepatocytes [4]): > 75% | dose that underwent metabolism (human hepatocytes [4]): up to 97% | catalytic efficiency of N-oxidation, human P450 1A2 superior to rat P450 1A2 (P450 1A2): 19 fold | extent of metabolism in rat hepatocytes (rat hepatocytes): poorly metabolized | N-oxidation products as share of the dose (rat hepatocytes): less than 2%

Nc1nc2c(nc(Nc3ccc(-c4ccccc4)cc3)n2[C@H]2C[C@H](O)[C@@H](CO)O2)c(=O)[nH]1 [dG-C8-4-ABP, N-(Deoxyguanosin-8-yl)-4-aminobiphenyl]
DNA adduct formation, Adducts per 10^7 Bases (human hepatocytes [5]; human hepatocytes donor HH B): 150 Adducts per 10^7 Bases | DNA adduct formation, Adducts per 10^7 Bases (human hepatocytes [5]; human hepatocytes donor HH C): 38.8 ± 4.8 Adducts per 10^7 Bases | DNA adduct formation, Adducts per 10^7 Bases (human hepatocytes [5]; human hepatocytes donor HH D): 100 Adducts per 10^7 Bases | DNA adduct formation, Adducts per 10^7 Bases (human hepatocytes [5]; human hepatocytes donor HH F): 49.0 ± 1.7 Adducts per 10^7 Bases | DNA adduct formation, Adducts per 10^7 Bases (human hepatocytes [5]; human hepatocytes donor HH G): 87.9 ± 8.3 Adducts per 10^7 Bases | DNA adduct formation, Adducts per 10^7 Bases (human hepatocytes [5]; human hepatocytes donor HH H): 70.0 ± 5.8 Adducts per 10^7 Bases

Nc1nc2c(nc(Nc3ccc4c(n3)[nH]c3ccccc34)n2[C@H]2C[C@H](O)[C@@H](CO)O2)c(=O)[nH]1 [dG-C8-AαC, N-(Deoxyguanosin-8-yl)-AαC]
DNA adduct formation, Adducts per 10^7 Bases (human hepatocytes [5]; human hepatocytes donor HH B): 32.5 ± 1.8 Adducts per 10^7 Bases | DNA adduct formation, Adducts per 10^7 Bases (human hepatocytes [5]; human hepatocytes donor HH C): 44.4 ± 5.6 Adducts per 10^7 Bases | DNA adduct formation, Adducts per 10^7 Bases (human hepatocytes [5]; human hepatocytes donor HH D): 109 ± 6.4 Adducts per 10^7 Bases | DNA adduct formation, Adducts per 10^7 Bases (human hepatocytes [5]; human hepatocytes donor HH F): 72.0 ± 5.9 Adducts per 10^7 Bases | DNA adduct formation, Adducts per 10^7 Bases (human hepatocytes [5]; human hepatocytes donor HH G): 82.0 ± 15.4 Adducts per 10^7 Bases | DNA adduct formation, Adducts per 10^7 Bases (human hepatocytes [5]; human hepatocytes donor HH H): 31.4 ± 3.3 Adducts per 10^7 Bases

Cn1c(Nc2nc3c(=O)[nH]c(N)nc3n2[C@H]2C[C@H](O)[C@@H](CO)O2)nc2c3cccnc3ccc21 [dG-C8-IQ, N-(deoxyguanosin-8-yl)-IQ]
DNA adduct formation, Adducts per 10^7 Bases (human hepatocytes [5]; human hepatocytes donor HH A): 9.8 ± 1.1 Adducts per 10^7 Bases | DNA adduct formation, Adducts per 10^7 Bases (human hepatocytes [5]; human hepatocytes donor HH B): 10.3 ± 0.6 Adducts per 10^7 Bases | DNA adduct formation, Adducts per 10^7 Bases (human hepatocytes [5]; human hepatocytes donor HH C): 18.3 ± 0.8 Adducts per 10^7 Bases | DNA adduct formation, Adducts per 10^7 Bases (human hepatocytes [5]; human hepatocytes donor HH D): 26.2 ± 1.9 Adducts per 10^7 Bases | DNA adduct formation, Adducts per 10^7 Bases (human hepatocytes [5]; human hepatocytes donor HH G): 13.5 ± 1.5 Adducts per 10^7 Bases | DNA adduct formation, Adducts per 10^7 Bases (human hepatocytes [5]; human hepatocytes donor HH H): 7.0 ± 2.2 Adducts per 10^7 Bases

Cc1cnc2ccc3c(nc(Nc4nc5c(=O)[nH]c(N)nc5n4[C@H]4C[C@H](O)[C@@H](CO)O4)n3C)c2n1 [dG-C8-MeIQx, N-(deoxyguanosin-8-yl)-MeIQx]
DNA adduct formation, Adducts per 10^7 Bases (human hepatocytes [5]; human hepatocytes donor HH A): 3.4 ± 0.3 Adducts per 10^7 Bases | DNA adduct formation, Adducts per 10^7 Bases (human hepatocytes [5]; human hepatocytes donor HH B): 12.4 ± 0.6 Adducts per 10^7 Bases | DNA adduct formation, Adducts per 10^7 Bases (human hepatocytes [5]; human hepatocytes donor HH C): 13.9 ± 0.2 Adducts per 10^7 Bases | DNA adduct formation, Adducts per 10^7 Bases (human hepatocytes [5]; human hepatocytes donor HH D): 12.2 ± 3.5 Adducts per 10^7 Bases | DNA adduct formation, Adducts per 10^7 Bases (human hepatocytes [5]; human hepatocytes donor HH F): 19.0 ± 1.9 Adducts per 10^7 Bases | DNA adduct formation, Adducts per 10^7 Bases (human hepatocytes [5]; human hepatocytes donor HH G): 16.1 ± 1.0 Adducts per 10^7 Bases | DNA adduct formation, Adducts per 10^7 Bases (human hepatocytes [5]; human hepatocytes donor HH H): 5.1 ± 0.1 Adducts per 10^7 Bases

Cn1c(Nc2nc3c(=O)[nH]c(N)nc3n2[C@H]2C[C@H](O)[C@@H](CO)O2)nc2ncc(-c3ccccc3)cc21 [dG-C8-PhIP, N-(deoxyguanosin-8-yl)-PhIP]
DNA adduct formation, Adducts per 10^7 Bases (human hepatocytes [5]; human hepatocytes donor HH A): 13.4 ± 1.7 Adducts per 10^7 Bases | DNA adduct formation, Adducts per 10^7 Bases (human hepatocytes [5]; human hepatocytes donor HH B): 22.0 Adducts per 10^7 Bases | DNA adduct formation, Adducts per 10^7 Bases (human hepatocytes [5]; human hepatocytes donor HH C): 7.5 ± 1.6 Adducts per 10^7 Bases | DNA adduct formation, Adducts per 10^7 Bases (human hepatocytes [5]; human hepatocytes donor HH D): 7.7 ± 1.0 Adducts per 10^7 Bases | DNA adduct formation, Adducts per 10^7 Bases (human hepatocytes [5]; human hepatocytes donor HH F): 14.0 ± 0.6 Adducts per 10^7 Bases | DNA adduct formation, Adducts per 10^7 Bases (human hepatocytes [5]; human hepatocytes donor HH G): 30.6 ± 2.4 Adducts per 10^7 Bases | DNA adduct formation, Adducts per 10^7 Bases (human hepatocytes [5]; human hepatocytes donor HH H): 6.0 ± 1.0 Adducts per 10^7 Bases
